Patent US20190185865A1, “USE OF PROKARYOTIC TRANSCRIPTIONAL ACTIVATORS AS METABOLITE BIOSENSORS IN EUKARYOTIC CELLS” (Danmarks Tekniske Universitet, priority 2016, published 2019)

How the values were obtained:
S. cerevisiae cells = assay: Transport assay: uptake of CCM by yeast cells (LC-MS); format: cell-based, Saccharomyces cerevisiae; conditions: pH 4.5, 24 h
Description: Overnight grown CEN.PK113-5A cells were diluted (OD600=0.1) into SC-HIS-LEU medium with or without 1.4 mM (200 mg/L) CCM. Media samples were taken at both 0 h and 24 h, while samples for measuring cellular lysates (10^8 cells) were harvested at 24 h. For quantification of CCM by LC-MS, cultures were harvested by centrifugation. For extracellular CCM quantification the supernatant was centrifuged twice and filtered (0.2 μm) before analysis. For intracellular CCM quantification harvested pellets were washed twice in ice-cold isotonic saline solution (0.9% NaCl) and centrifuged at 5,000×g before cells were extracted in an aqueous 0.1% formic acid solution and sonicated for 15 min. Following this, samples were centrifuged at 13,000×g and supernatants filtered (0.2 μm) prior to analysis. LC-MS data was collected on EVOQ EliteTriple Quadrupole Mass Spectrometer system coupled with an Advance UHPLC (Bruker). Samples were held at 4° C. during the analysis. A 1 μL sample was injected onto a ACQUITY HSS T3 C18 UHPLC column (Waters), with a 1.8 μm particle size and 2.1×100 mm dimensioning. The column was held at a temperature of 30° C. […] Two transitions were chosen in negative Multiple Reaction Monitoring (MRM) mode for quantification of CCM: m/z 141.70-96.80 (quantification transition) and m/z 141.70-53.1 (confirmation transition). […]

BenM^H110R, F211V, Y286N = target: T1, BenM^H110R, F211V, Y286N (Acinetobacter baylyi, UniProt O68014, F211V/H110R/Y286N); assay: CCM-induced GFP expression in yeast expressing engineered BenM variants (epPCR library, FACS, flow cytometry); format: cell-based, Saccharomyces cerevisiae
T1 construct: expressed in transfected cells; host or cells: Saccharomyces cerevisiae; centromeric plasmid (gap repair) or chromosomal integration, REV1p
T1 sequence (O68014 whole entry H110R/F211V/Y286N): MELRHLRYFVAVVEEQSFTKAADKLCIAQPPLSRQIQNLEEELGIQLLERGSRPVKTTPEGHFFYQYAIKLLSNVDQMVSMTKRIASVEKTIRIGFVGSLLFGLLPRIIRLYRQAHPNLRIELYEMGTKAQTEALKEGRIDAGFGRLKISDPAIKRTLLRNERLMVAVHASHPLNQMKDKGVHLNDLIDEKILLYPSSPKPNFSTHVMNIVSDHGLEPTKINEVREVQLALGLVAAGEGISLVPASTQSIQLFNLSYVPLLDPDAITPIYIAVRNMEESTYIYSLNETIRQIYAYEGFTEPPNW
Text: For optimization of the CCM inducibility of BenM, purified products from three consecutive rounds of error-prone PCR (epPCR) of the effector-binding domain (EBD, residues 90-304) of BenM, were co-transformed into yeast together with linearized centromeric plasmid according to Eckert-Boulet et al. (Eckert-Boulet, N., Pedersen, M. L., Krogh, B. O. & Lisby, M. Optimization of ordered plasmid assembly by gap repair in Saccharomyces cerevisiae. Yeast 29, 323-34 (2012)), to allow for in vivo gap repair and library reconstitution of wild-type BenM DNA binding domain (DBD) fused to EBD variants expressed from REV1p. For epPCR we used the GeneMorph II kit according to manufacturer's description (Agilent Technologies). Transformed yeast contained a chromosomal integration of the 209 bp_CYC1p_BenO_T1 promoter controlling the expressing of GFP at EasyClone site 4 on chromosome XII (Mikkelsen, M. D. et al. Microbial production of indolylglucosinolate through engineering of a multi-gene pathway in a versatile yeast expression platform. Metab. Eng. 14, 104-11 (2012)), to allow for FACS-based screening of improved CCM-inducible BenM variants.
A two-step method was used to sort for BenM variants that specifically induce in the presence of CCM. Cells (10× library size, approx. 400,000 cells) were inoculated in mineral medium without inducer and incubated for 24 h at 30° C., diluted into PBS, and then GFP intensity of individual cells was measured using a BD Biosciences Aria (Becton Dickinson) with a blue laser (488 nm) by applying tight gates on the FSC and SSC channels. Only cells displaying auto-fluorescence intensities were sorted in order to limit auto-activating BenM variants. Sorted cells were recovered in mineral medium, followed by subculturing (1:100) into mineral medium containing 1.4 mM (200 mg/L) cis,cis-muconic acid. The cells were grown for 24 h at 30° C., washed and subjected to a second round of FACS. […] Individual clones were subsequently validated using flow cytometry.
Events were analyzed using FlowJo software (TreeStar Inc.).

Compound: O=C(O)/C=C\C=C/C(=O)O [CCM, cis, cis-muconic acid]
- uptake of CCM by yeast (S. cerevisiae cells): directly taken up
- specificity of GFP induction among diacids tested (BenM^H110R, F211V, Y286N; BenM^H110R, diacids 1.4 mM, pH 4.5, 24 h): induce GFP expression specifically in response to CCM
- maximum induction of GFP output (BenM^H110R, F211V, Y286N; chromosomally integrated BenM^H110R, 1.4 mM (200 mg/L) CCM, 24 h): 10 fold
- GFP output upon CCM induction (BenM^H110R, F211V, Y286N; plasmid-based expression of BenM^H110R): 6 fold
